Measured values from paper PMC7215373, “Design, Synthesis, and Anticancer Evaluation of Novel Indole Derivatives of Ursolic Acid as Potential Topoisomerase II Inhibitors” (International Journal of Molecular Sciences, 2020).

Columns and labels:
[1] = test system: SMMC-7721 cells; assay: MTT cytotoxicity assay, SMMC-7721; assay type: cell-based, human; conditions: 48 h exposure
Method: (§1) The in vitro cytotoxic activities of synthesized compounds were evaluated against two human hepatocarcinoma cell lines (SMMC-7721 and HepG2) and the human normal hepatocyte cell line (LO2) via MTT assay. All tested compounds were dissolved in DMSO and the stock solutions were diluted by DMEM medium before treatment of the cultured cells. […] Cell lines were obtained from American Tissue Culture Collection (ATCC). Briefly, different tumor cells were grown in DMEM medium supplemented with 10% fetal bovine serum, penicillin (100 U/mL), and streptomycin (50 μg/mL). Cells were harvested at log phase of growth and seeded in 96-well plates (100 μL/well at a density of 2 × 10^5 cells/mL). After 24 h incubation at 37 °C and 5% CO2 to allow cell attachment, cultures were exposed to various concentrations of the isolated compounds for 48 h. Finally, MTT solution (2.5 mg/mL in PBS) was added (40 μL/well). Plates were further incubated for 4 h at 37 °C, and the formazan crystals formed were dissolved by adding 150 μL/well of DMSO. Absorption at 570 nm was measured with an ELISA plate reader. […] Doxorubicin, camptothecin, and etoposide (VP-16) were co-assayed as positive controls.

[2] = test system: HepG2 cells; assay: MTT cytotoxicity assay, HepG2; assay type: cell-based, human; conditions: 48 h exposure
Method: as §1

[3] = test system: LO2 cells; assay: MTT cytotoxicity assay, normal hepatocyte LO2; assay type: cell-based; conditions: Homo sapiens, L02, 48 h exposure, normal hepatocyte cell line
Method: as §1

[4] = biological target: T1, DNA topoisomerase I (Bos taurus, UniProt F1MN93); assay: Topoisomerase I relaxation assay (supercoiled pBR322); assay type: biochemical; conditions: for inhibition at 100 µM: 100 μM compound, read-out: Topo I Inhibition (%) 100 μM
T1 construct: purchased TaKaRa, Kyoto, Japan
T1 sequence (F1MN93 1-767): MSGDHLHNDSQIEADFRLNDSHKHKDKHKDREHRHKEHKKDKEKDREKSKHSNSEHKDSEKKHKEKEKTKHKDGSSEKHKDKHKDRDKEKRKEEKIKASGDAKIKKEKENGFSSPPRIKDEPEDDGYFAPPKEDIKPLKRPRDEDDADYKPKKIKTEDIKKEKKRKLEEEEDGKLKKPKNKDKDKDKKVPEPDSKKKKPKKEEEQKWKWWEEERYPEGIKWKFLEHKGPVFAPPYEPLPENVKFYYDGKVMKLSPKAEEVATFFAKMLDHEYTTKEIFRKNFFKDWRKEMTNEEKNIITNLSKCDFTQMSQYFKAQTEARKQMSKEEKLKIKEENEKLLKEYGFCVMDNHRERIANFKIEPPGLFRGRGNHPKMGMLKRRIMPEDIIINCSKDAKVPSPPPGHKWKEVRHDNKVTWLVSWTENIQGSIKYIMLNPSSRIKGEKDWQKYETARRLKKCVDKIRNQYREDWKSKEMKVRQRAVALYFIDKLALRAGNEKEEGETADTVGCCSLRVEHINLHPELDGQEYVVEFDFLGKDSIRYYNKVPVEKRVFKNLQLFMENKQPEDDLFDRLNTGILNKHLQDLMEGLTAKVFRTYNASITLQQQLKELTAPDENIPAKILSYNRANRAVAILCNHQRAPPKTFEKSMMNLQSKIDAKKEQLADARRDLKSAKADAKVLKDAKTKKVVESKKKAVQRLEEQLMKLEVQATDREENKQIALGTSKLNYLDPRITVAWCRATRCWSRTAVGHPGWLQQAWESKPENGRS
Method: The effect of the tested compounds on Topo I and II activities were evaluated by Topo I/II relaxation assays. The reaction products, relaxed DNA could be distinguished from supercoiled DNA by gel electrophoresis and visualized using gel imaging system. The activity of DNA topoisomerase I (TaKaRa, Kyoto, Japan) was determined by measuring the relaxation of supercoiled DNA pBR322 [32]. Camptothecin was used as a positive control. The reaction mixture was prepared according to the manufacture's protocol, and incubated at 37 °C for 30 min. The reactions were terminated by adding dye solution containing 1% SDS, 0.02% bromophenol blue and 50% glycerol. The mixtures were applied to 1% agarose gel and subjected to electrophoresis for 1 h, in 1× TAE buffer (40 mM Tris-acetate, 1 mM EDTA). Gels were stained for 30 min in 60 mL 1× TAE buffer with ethidium bromide (0.5 μg/mL). DNA bands were visualized by transillumination with UV light and then photographed by a Gel Doc XR+ System (BIO-RAD, Hercules, CA, USA).

[5] = biological target: T2, Human Topoisomerase IIα (Homo sapiens, UniProt P11388); assay: Topoisomerase II relaxation assay (supercoiled pBR322); assay type: biochemical; conditions: for inhibition at 20 µM: 20 μM compound, read-out: Topo II Inhibition (%) 20 μM; for inhibition at 100 µM: 100 μM compound, read-out: Topo II Inhibition (%) 100 μM
T2 construct: purchased USB, Affymetrix, Waltham, MA, USA
T2 sequence (P11388 whole entry): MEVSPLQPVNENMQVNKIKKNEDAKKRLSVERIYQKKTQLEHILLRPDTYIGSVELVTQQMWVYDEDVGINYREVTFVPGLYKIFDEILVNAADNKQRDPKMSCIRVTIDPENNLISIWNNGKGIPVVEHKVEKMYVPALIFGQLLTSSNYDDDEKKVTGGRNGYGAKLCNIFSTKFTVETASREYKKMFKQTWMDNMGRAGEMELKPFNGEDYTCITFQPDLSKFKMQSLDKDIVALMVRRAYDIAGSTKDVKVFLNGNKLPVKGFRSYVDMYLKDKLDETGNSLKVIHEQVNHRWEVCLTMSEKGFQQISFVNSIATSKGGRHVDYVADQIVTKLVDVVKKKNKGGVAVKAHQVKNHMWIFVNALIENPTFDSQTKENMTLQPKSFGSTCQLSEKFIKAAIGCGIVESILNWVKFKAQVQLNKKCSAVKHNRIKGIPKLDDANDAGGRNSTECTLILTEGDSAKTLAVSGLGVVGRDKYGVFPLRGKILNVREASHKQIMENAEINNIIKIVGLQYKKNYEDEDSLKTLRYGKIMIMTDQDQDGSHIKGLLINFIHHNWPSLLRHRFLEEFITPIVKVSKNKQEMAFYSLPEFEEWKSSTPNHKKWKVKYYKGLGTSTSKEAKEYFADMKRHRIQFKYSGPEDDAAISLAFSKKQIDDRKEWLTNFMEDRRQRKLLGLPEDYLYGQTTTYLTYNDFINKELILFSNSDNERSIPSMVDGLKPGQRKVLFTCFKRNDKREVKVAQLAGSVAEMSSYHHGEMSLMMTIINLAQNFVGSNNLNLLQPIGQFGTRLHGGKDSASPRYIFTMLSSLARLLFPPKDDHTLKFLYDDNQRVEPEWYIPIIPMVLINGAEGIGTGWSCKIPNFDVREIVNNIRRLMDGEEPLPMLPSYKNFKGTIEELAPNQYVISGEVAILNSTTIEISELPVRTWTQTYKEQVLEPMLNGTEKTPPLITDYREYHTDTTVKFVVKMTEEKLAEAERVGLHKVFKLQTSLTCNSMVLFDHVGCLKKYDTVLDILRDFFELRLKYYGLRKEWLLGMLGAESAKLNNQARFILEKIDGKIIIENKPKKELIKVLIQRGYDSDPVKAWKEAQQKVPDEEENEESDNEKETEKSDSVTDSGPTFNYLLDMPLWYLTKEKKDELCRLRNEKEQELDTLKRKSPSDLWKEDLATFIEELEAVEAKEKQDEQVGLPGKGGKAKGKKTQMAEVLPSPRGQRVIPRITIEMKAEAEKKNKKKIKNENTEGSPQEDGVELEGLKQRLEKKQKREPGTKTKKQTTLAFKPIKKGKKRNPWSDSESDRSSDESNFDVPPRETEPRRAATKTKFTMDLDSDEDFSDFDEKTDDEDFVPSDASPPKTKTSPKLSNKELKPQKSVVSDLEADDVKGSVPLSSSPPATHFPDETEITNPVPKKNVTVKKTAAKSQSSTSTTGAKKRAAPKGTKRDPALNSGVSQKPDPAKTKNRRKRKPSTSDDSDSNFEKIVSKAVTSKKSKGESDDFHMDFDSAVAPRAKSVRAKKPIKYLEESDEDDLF
Method: The effect of the tested compounds on Topo I and II activities were evaluated by Topo I/II relaxation assays. The reaction products, relaxed DNA could be distinguished from supercoiled DNA by gel electrophoresis and visualized using gel imaging system. Human Topoisomerase IIα activity was detected by measuring the relaxation of supercoiled pBR322 plasmid DNA [22]. […] For inhibition studies, the compounds were pre-incubated with human Topo IIα and DNA for 15 min. Compounds were used at the appropriate concentrations by dissolving in 2% (v/v) DMSO. DMSO didn't show detrimental effect on the enzyme activity at concentration up to 2% (v/v). Reaction mixture was incubated at 37 °C for 30 min and stopped by the addition of 7 mM EDTA. Reaction product was mixed with DNA loading dye and electrophoresed on 1% TAE-Agarose. The gel was stained with ethidium bromide (0.5 μg/mL) for 30 min, destained twice in 1× TAE buffer, and then visualized using a BIO-RAD Gel Doc XR+ System. Etoposide (VP-16) was co-assayed as a positive control.

Cc1ccc2[nH]c3c(c2c1)C[C@@]1(C)C(CC[C@]2(C)C1CC=C1C4[C@@H](C)[C@H](C)CC[C@]4(C(=O)NCCN4CCOCC4)CC[C@]12C)C3(C)C (some centres unmarked) [4e, N-(2-Morpholinoethyl)-5′-methyl-1′H-ursa-2,12-dieno[3,2-b]indol-28-carboxamide]
IC50 ([1]; Homo sapiens, SMMC-7721, 48 h): 7.82 ± 0.78 µM
IC50 ([2]; Homo sapiens, HepG2, 48 h): 10.7 ± 2.09 µM
IC50 [3]: > 50 µM
inhibition at 100 µM [4]: 0%
inhibition at 20 µM [5]: 26.8%
inhibition at 100 µM [5]: 63.3%
melting point: 104 to 105 °C

Cc1ccc2[nH]c3c(c2c1)C[C@@]1(C)C(CC[C@]2(C)C1CC=C1C4[C@@H](C)[C@H](C)CC[C@]4(C(=O)NCCN4CCN(C)CC4)CC[C@]12C)C3(C)C (some centres unmarked) [4f, N-(2-(4-Methylpiperazin-1-yl)ethyl)-5′-methyl-1′H-ursa-2,12-dieno[3,2-b]indol-28-carboxamide]
IC50 [1]: 1.24 ± 0.16 µM
IC50 ([1]; Homo sapiens, SMMC-7721, 48 h): ~1 µM
IC50 [2]: 1.35 ± 0.17 µM
IC50 ([2]; Homo sapiens, HepG2, 48 h): ~1 µM
IC50 [3]: 18.3 ± 0.78 µM
inhibition at 100 µM [4]: 0%
inhibition at 20 µM [5]: 31.3%
inhibition at 100 µM [5]: 73.7%
melting point: 188 to 190 °C

Cc1ccc2[nH]c3c(c2c1)C[C@@]1(C)C(CC[C@]2(C)C1CC=C1C4[C@@H](C)[C@H](C)CC[C@]4(C(=O)NCCCN)CC[C@]12C)C3(C)C (some centres unmarked) [5a, N-(3-Aminopropyl)-5′-methyl-1′H-ursa-2,12-dieno[3,2-b]indol-28-carboxamide]
IC50 ([1]; Homo sapiens, SMMC-7721, 48 h): 2.02 ± 0.21 µM
IC50 ([2]; Homo sapiens, HepG2, 48 h): 2.45 ± 0.38 µM
IC50 [3]: 21.3 ± 1.59 µM
inhibition at 20 µM ([4]; 20 μM compound, read-out: Topo I Inhibition (%) 20 μM): 12.4%
inhibition at 100 µM [4]: 24.5%
inhibition at 20 µM [5]: 31.2%
inhibition at 100 µM [5]: 72.3%
melting point: 205 to 207 °C

CCN(CC)CCCNC(=O)[C@]12CC[C@@H](C)[C@H](C)C1C1=CCC3[C@@]4(C)Cc5c([nH]c6ccc(C)cc56)C(C)(C)C4CC[C@@]3(C)[C@]1(C)CC2 (some centres unmarked) [5c, N-(3-(Diethylamino)propyl)-5′-methyl-1′H-ursa-2,12-dieno[3,2-b]indol-28-carboxamide]
IC50 ([1]; Homo sapiens, SMMC-7721, 48 h): 1.15 ± 0.14 µM
IC50 ([2]; Homo sapiens, HepG2, 48 h): 1.2 ± 0.24 µM
IC50 [3]: 15.8 ± 1.06 µM
inhibition at 100 µM [4]: 0%
inhibition at 20 µM [5]: 38.9%
inhibition at 100 µM [5]: 75.8%
melting point: 147 to 149 °C

Cc1ccc2[nH]c3c(c2c1)C[C@@]1(C)C(CC[C@]2(C)C1CC=C1C4[C@@H](C)[C@H](C)CC[C@]4(C(=O)NCCCN4CCCCC4)CC[C@]12C)C3(C)C (some centres unmarked) [5d, N-(3-(Piperidin-1-yl)propyl)-5′-methyl-1′H-ursa-2,12-dieno[3,2-b]indol-28-carboxamide]
IC50 ([1]; Homo sapiens, SMMC-7721, 48 h): 0.89 ± 0.11 µM
IC50 ([2]; Homo sapiens, HepG2, 48 h): 1.04 ± 0.09 µM
IC50 [3]: 12.8 ± 0.83 µM
inhibition at 100 µM [4]: 0%
inhibition at 20 µM [5]: 41.3%
inhibition at 100 µM [5]: 81.1%
melting point: 183 to 185 °C
